In US6030960A, “Method of treating hepatitis virus infections” (priority 1998, dated 2000):
Where “and” joins values, the source holds several entries; their conditions need not be identical. Identical values can stand only once.

Key:
Assay type in all cases: cell-based
Hepatitis B virus [1] = experiment: Effect of alkyl lipids on HBV replication in HBV persistently infected human HEP G2 cells (Table 6); conditions: for Intracellular HBV DNA, Mono (episomal 3.2-3.8 Kb HBV genomes) / Intracellular HBV DNA, RI (replication intermediates): nine days
Procedure: Cells were treated with a particular compound for nine days at 37° C. Analysis of intracellular HEIV DNA was done 24 hours following the ninth day of treatment. […] The levels of integrated HBV DNA in each cellular DNA preparation were used to calculate the levels of episomal 3.2-3.8 Kb HBV genomes (Mono) and HBV DNA replication intermediates (RI). A zero value indicates an undetectable level of HBV virion DNA. The sensitivity cut-off was 0.1 pg DNA/ml of culture medium.

[2] = system: HEP G2 cells persistently infected with HBV; experiment: Cytotoxicity in HBV persistently infected human HEP G2 cells, neutral red dye uptake (Table 5); conditions: at concentrations with strong or moderate antiviral activity
From the text: (§1) Initially, evaluations of the alkyl lipids were done to determine whether the compounds were cytotoxic to the cells at concentrations having anti-HBV activity. The assay methodology is szt forth in Korba and Germ, Antiviral Res., 19, 55-70 (1992), incorporated by reference herein. Briefly, these cell cytotoxicity evaluations were done in 96-well plates seeded with HEP-G2 cell monolayers. The hepatoblastoma cell line HEP-G2 transfected with a plasmid carrying the gene that confers resistance to […] and four 5'-3' tandem copies of the Hepatitis B virus genome was obtained from Dr. George Acs. Proc. Natl. Acad. Sci. USA, 84, 1005-1009 (1987). Serial concentrations of compound were added to the RPMI-1640 growth medium and the growth medium was added to the 96-well plates containing the cell monolayers. The cells were incubated for a total of nine days at 37° C. The compound-containing medium was periodically replaced. Each compound was tested at four serial concentrations in triplicate. After nine days of treatment and incubation, 0.01% neutral red dye (Sigma, Inc.) was added to the overlay medium. Cell cytotoxicity was quantitated by measuring the average A510. Values in Table 1 represent the percentage of average A510 values (±standard deviation) relative to nine non-treated control wells.
(§2) An analysis was periormed to determine the cytotoxicity of the following compounds in human HEP-G2 cells persistently infected with HBV: CP-51, CP-49, CP-9, CP-126, lyso PAF and CP-7. 2'-3'-Dideoxycytidine (ddC) was used as a control in this cytotoxicity analysis. The toxicity analyses were performed in 96-well flat bottomed tissue culture plates following the same procedure set forth in Example 6 above. Each compound was tested at four concentrations, each in triplicate cultures. Uptake of neutral red dye was used to determine the relative level of toxicity. The absorbance of internalized dye at […] (A510) was used for the quantitative analysis.
(§3) Values are presented as a percentage of the average A510 values (± standard deviations) in ninz separate cultures of untreated cells maintained on the same 96-well plate as the test compounds. The percentage of dye uptake in the nine control cultures was 100±1.

[3] = as above; conditions: human, hep-g2 cells, Trial 2, read-out: % of Control Neutral Red Dye Uptake
From the text: as §1, §2, §3

Hepatitis B virus [4] = experiment: Effect on synthesis of antigen markers in persistently infected human HEP G2 cell cultures (Table 7); conditions: for activity at 10 µM: Hepatitis B virus, HepG2, 216 h
Procedure: Cells were treated with compound for nine days at 37° C. The overlay medium was harvested to measure levels of HBsAg, HBeAg and virion DNA. HBsAg and HBeAg were assayed by EIA (Abbott Laboratories). Virion DNA levels were measured as described in section B above.

[5] = Cytotoxicity of alkyl lipids, neutral red dye uptake (Table 1); conditions: human, hep-g2 cells
From the text: as §1

Hepatitis B virus [6] = experiment: Anti-hepatitis B virus activity in HEP-G2 cells persistently infected with HBV (Table 2); conditions: 10 μM; for activity against HBV-induced virion DNA and HBeAg syntheses: in words; for activity at 10 µM: Hepatitis B virus, HepG2, 216 h, 9 days treatment
Procedure: HEP-G2 cells persistently infected with HBV were treated daily with fresh D-MEM containing 20% FBS and 10 μM compound. After 9 days incubation and treatment, the overlay medium was harvested to assay the quantity of Hepatitis B virus s antigen (HBsAg) and HBeAg by EIA (Abbott Laboratories). The overlay medium was diluted to levels of antigen in the linear range of the assay. Standard curves using dilutions of positive HBsAg and HBeAg controls were included in each assay. Virion DNA was assayed using the method set forth in Korba and Gerin, Antiviral Res., 19, 5,5-70 (1992), incorporated by reference herein. HBV DNA was extracted from the overlay medium containing virus particles and analyzed by a slot-blot hybridization technique using ^32 P-labelled 3.2 Kb Eco R1 HBV DNA fragment by comparisons to HBV standards present on nitrocellulose filters using an AMBIS beta scanner. EC90 values (90% effective concentration, i.e., drug concentration which induces a 90% decrease in the levels of HBV DNA replication intermediates in treated versus control cells) were calculated by linear regression analysis. The relative levels of HBsAg, HBeAg and virion DNA were calulated as a percentage of the average levels obtained from the untreated controls.

[7] = read-out: Relative Level of HBeAg
[8] = read-out: Relative Level of HBsAg
[9] = read-out: Relative Level of Virion DNA

CCCCCCCCCCCCOCC(COP(=O)(O)OC[C@H]1O[C@@H](n2cc(C)c(=O)[nH]c2=O)C[C@@H]1N=[N+]=[N-])OCCCCCCCCCC (mixture of isomers) [CP-126, 3'-Azido-3'-deoxy-5'-(rac-3-dodecyloxy-2-decyloxy-1-propyl) phosphothymidine]
HBV Virion DNA (Hepatitis B virus [1]; 0.1 μM, Day 0): 50 pg/ml Culture Medium and 52 pg/ml Culture Medium and 54 pg/ml Culture Medium and 60 pg/ml Culture Medium | HBV Virion DNA (Hepatitis B virus [1]; 0.1 μM, Day 3): 77 pg/ml Culture Medium and 79 pg/ml Culture Medium and 67 pg/ml Culture Medium and 65 pg/ml Culture Medium | HBV Virion DNA (Hepatitis B virus [1]; 0.1 μM, Day 6): 61 pg/ml Culture Medium and 72 pg/ml Culture Medium and 83 pg/ml Culture Medium and 66 pg/ml Culture Medium | HBV Virion DNA (Hepatitis B virus [1]; 0.1 μM, Day 9): 78 pg/ml Culture Medium and 64 pg/ml Culture Medium and 82 pg/ml Culture Medium and 77 pg/ml Culture Medium | Intracellular HBV DNA, Mono (episomal 3.2-3.8 Kb HBV genomes) (Hepatitis B virus [1]; 0.1 μM): 2.2 pg/μg Cell DNA and 2.6 pg/μg Cell DNA and 2.4 pg/μg Cell DNA | Intracellular HBV DNA, RI (replication intermediates) (Hepatitis B virus [1]; 0.1 μM): 64 pg/μg Cell DNA and 54 pg/μg Cell DNA and 70 pg/μg Cell DNA and 89 pg/μg Cell DNA | HBV Virion DNA (Hepatitis B virus [1]; 1 μM, Day 0): 67 pg/ml Culture Medium and 54 pg/ml Culture Medium and 70 pg/ml Culture Medium and 69 pg/ml Culture Medium | HBV Virion DNA (Hepatitis B virus [1]; 1 μM, Day 3): 49 pg/ml Culture Medium and 57 pg/ml Culture Medium and 65 pg/ml Culture Medium and 53 pg/ml Culture Medium | HBV Virion DNA (Hepatitis B virus [1]; 1 μM, Day 6): 40 pg/ml Culture Medium and 39 pg/ml Culture Medium and 44 pg/ml Culture Medium and 48 pg/ml Culture Medium | HBV Virion DNA (Hepatitis B virus [1]; 1 μM, Day 9): 28 pg/ml Culture Medium and 20 pg/ml Culture Medium and 22 pg/ml Culture Medium and 26 pg/ml Culture Medium | Intracellular HBV DNA, Mono (episomal 3.2-3.8 Kb HBV genomes) (Hepatitis B virus [1]; 1 μM): 2.3 pg/μg Cell DNA and 2.7 pg/μg Cell DNA and 2.1 pg/μg Cell DNA and 1.8 pg/μg Cell DNA | Intracellular HBV DNA, RI (replication intermediates) (Hepatitis B virus [1]; 1 μM): 51 pg/μg Cell DNA and 67 pg/μg Cell DNA and 56 pg/μg Cell DNA and 61 pg/μg Cell DNA | HBV Virion DNA (Hepatitis B virus [1]; 10 μM, Day 0): 60 pg/ml Culture Medium and 62 pg/ml Culture Medium and 59 pg/ml Culture Medium and 51 pg/ml Culture Medium | HBV Virion DNA (Hepatitis B virus [1]; 10 μM, Day 3): 59 pg/ml Culture Medium and 50 pg/ml Culture Medium and 55 pg/ml Culture Medium and 66 pg/ml Culture Medium | HBV Virion DNA (Hepatitis B virus [1]; 10 μM, Day 6): 20 pg/ml Culture Medium and 21 pg/ml Culture Medium and 26 pg/ml Culture Medium and 29 pg/ml Culture Medium | HBV Virion DNA (Hepatitis B virus [1]; 10 μM, Day 9, 0 = undetectable, cut-off 0.1 pg DNA/ml): 13 pg/ml Culture Medium and 8 pg/ml Culture Medium and 9 pg/ml Culture Medium and 12 pg/ml Culture Medium | Intracellular HBV DNA, Mono (episomal 3.2-3.8 Kb HBV genomes) (Hepatitis B virus [1]; 10 μM): 1.9 pg/μg Cell DNA and 2.5 pg/μg Cell DNA and 2.0 pg/μg Cell DNA and 2.3 pg/μg Cell DNA | Intracellular HBV DNA, RI (replication intermediates) (Hepatitis B virus [1]; 10 μM): 14 pg/μg Cell DNA and 9 pg/μg Cell DNA and 12 pg/μg Cell DNA and 16 pg/μg Cell DNA | inhibition of HBV replication (Hepatitis B virus [1]; in words): moderately inhibitory of HBV replication | Cell toxicity (greater than 50% depression of dye uptake) [2]: did not occur | viability at 216 h, 3 µM ([3]; 3 μM): 100 ± 1% | viability at 216 h, 10 µM ([3]; 10 μM): 97 ± 3% | viability at 216 h, 30 µM ([3]; 30 μM): 68 ± 1% | viability at 216 h, 100 µM ([3]; 100 μM): 20 ± 2% | Relative Level of HBeAg (Hepatitis B virus [4]; 10 μM, nine days, 12960 min): 42 % of Untreated Control | Relative Level of HBsAg (Hepatitis B virus [4]; 10 μM, nine days, 12960 min): 69 % of Untreated Control | Relative Level of Virion DNA (Hepatitis B virus [4]; 10 μM, nine days, 12960 min): 14 % of Untreated Control | activity at 10 µM (Hepatitis B virus [4]; read-out: Relative Level of HBeAg, 10 μM, nine days): 35% | activity at 10 µM (Hepatitis B virus [4]; read-out: Relative Level of HBsAg, 10 μM, nine days): 65% | activity at 10 µM (Hepatitis B virus [4]; read-out: Relative Level of Virion DNA, 10 μM, nine days): 10% | effect on HBsAg levels released into the culture medium (Hepatitis B virus [4]; in words): None of the compounds tested | reduction in HBeAg and virion DNA levels (Hepatitis B virus [4]; in words): caused a reduction

CCCCCCCCCCCCCCCC(=O)NCC(COP(=O)([O-])OCC[N+](C)(C)C)OC (stereo not drawn) [CP-48]
cytotoxicity at 216 h, 30 µM [5]: 39% | viability at 216 h, 3 µM [5]: 102 ± 1% | viability at 216 h, 10 µM [5]: 97 ± 1% | viability at 216 h, 30 µM [5]: 61 ± 2% | viability at 216 h, 100 µM [5]: 24 ± 1% | activity against HBV-induced virion DNA and HBeAg syntheses (Hepatitis B virus [6]): no significant activity | activity at 10 µM (Hepatitis B virus [6]; [7]): 88% | activity at 10 µM (Hepatitis B virus [6]; [8]): 73% | activity at 10 µM (Hepatitis B virus [6]; [9]): 96%

CCCCCCCCCCCCCCCCCC(=O)NCC(COP(=O)([O-])OCC[N+](C)(C)C)OC (stereo not drawn) [CP-50]
cytotoxicity at 216 h, 30 µM [5]: 0% | cytotoxicity at 216 h, 100 µM [5]: 5% | viability at 216 h, 3 µM [5]: 97 ± 2% | viability at 216 h, 10 µM [5]: 99 ± 2% | viability at 216 h, 30 µM [5]: 100 ± 3% | viability at 216 h, 100 µM [5]: 95 ± 2% | activity against HBV-induced virion DNA and HBeAg syntheses (Hepatitis B virus [6]): no significant activity | activity at 10 µM (Hepatitis B virus [6]; [7]): 93% | activity at 10 µM (Hepatitis B virus [6]; [8]): 104% | activity at 10 µM (Hepatitis B virus [6]; [9]): 88%
